As usually defined, the IC50 is the concentration that inhibits the measured activity by half.

Test [1] deals with human multiple myeloma cell line, OPM-2. Kind of test: Cell viability assay (OPM-2 10 FBS), CellTiter-Glo. It is filed as cell-based. An outline of the steps: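 Steps: plate cells at 3000/well in 10% FBS growth medium, add serially diluted compound, incubate 16 h at 37 °C with 5% CO2, add detection reagent and read luminescence after 25 min. A 4-parameter logistic model gives IC50.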
(In general: In ATP-based viability assays light output follows the ATP content of the culture.)

The target in test [2] is recombinant human Mcl-1 (residues 171-327) / Bim interaction (Homo sapiens (Human), UniProt Q07820). Kind of test: biochemical. The class given is binding. The following applies: read-out: Mcl-1 HTRF IC50. On the technique in general: TR-FRET usually uses a lanthanide donor and a delayed reading to cut background.
Sequence of recombinant human Mcl-1 (residues 171-327) / Bim interaction (Q07820 171-327): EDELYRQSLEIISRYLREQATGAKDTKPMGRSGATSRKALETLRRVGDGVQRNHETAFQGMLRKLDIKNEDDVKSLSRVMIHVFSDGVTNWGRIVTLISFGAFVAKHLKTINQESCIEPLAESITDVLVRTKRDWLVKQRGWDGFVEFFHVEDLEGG
[3] abbreviates: read-out: OPM-2 10% FBS IC50 IP, OPM-2 cells, 10% FBS, 16 h, CellTiter-Glo.
The mark [4] stands for this setting: TR-FRET, Mcl-1(171-327) / biotin-Bim (51-76).
Where [5] appears, read: Homo sapiens, OPM-2, 16 h, read-out: OPM-2 10% FBS IC50 IP, OPM-2 cells, 10% FBS, 16 h incubation.
Setting [6] is: 0.1 nM Mcl-1(171-327), 0.05 nM biotin-Bim (51-76).
Setting [7] is: Homo sapiens, OPM-2, 16 h, read-out: OPM-2 10% FBS IC50 IP, OPM-2 cells, 10% FBS, 16 h, CellTiter-Glo.

The structures appear in SMILES notation. Like-named read-outs stand apart in the source and are kept apart here.

On to `C[C@@H]1[C@@H](C)CCC[C@@](O)(CS(=O)(=O)N2CCN(C)CC2)[C@@H]2CC[C@H]2CN2C[C@@]3(CCCc4cc(Cl)ccc43)COc3ccc(cc32)C(=O)NS1(=O)=O` [Example 100139, (1S,3′R,6′R,7′S,11′S,12′R)-6-chloro-7′-hydroxy-11′,12′-dimethyl-7′-(((4-methyl-1-piperazinyl)sulfonyl)methyl)-3,4-dihydro-2H,15′H-spiro[naphthalene-1,22′-[20]oxa[13]thia[1,14]diazatetracyclo [14.7.2.0~3,6~.0~19,24~]pentacosa[16,18,24]trien]-15′-one 13′,13′-dioxide], for which the IC50 in test [1] (setting [3]) came to 974 nM; in test [2] (setting [4]), 2.58 nM. Turning to `CO[C@]1(CN2CCN3CCOC[C@@H]3C2)/C=C/[C@H](C)[C@H](C)CS(=O)(=O)NC(=O)c2ccc3c(c2)N(C[C@@H]2CC[C@H]21)C[C@@]1(CCCc2cc(Cl)ccc21)CO3` [Example 157, (1S,3′R,6′R,7′R,8′E,10′S,11′S)-6-chloro-7′-((9aS)-hexahydropyrazino[2,1-c][1,4]oxazin-8(1H)-ylmethyl)-7′-methoxy-10′,11′-dimethyl-3,4-dihydro-2H,15′H-spiro[naphthalene-1,22′-[20]oxa[13]thia[1,14]diazatetracyclo [14.7.2.0~3,6~.0~19,24~]pentacosa[8,16,18,24]tetraen]-15′-one 13′,13′-dioxide], the values for the IC50 in test [1] (setting [5]) and in test [2] (setting [6]) were 121 nM and 0.126 nM, respectively. For `C[C@@H]1[C@@H](C)C/C=C/[C@@](O)(C#CCN(C)C)[C@@H]2CC[C@H]2CN2C[C@@]3(CCCc4cc(Cl)ccc43)COc3ccc(cc32)C(=O)NS1(=O)=O` [Example 100295, (1S,3′R,6′R,7′S,8′E,11′S,12′R)-6-chloro-7′-(3-(dimethylamino)-1-propyn-1-yl)-7′-hydroxy-11′,12′-dimethyl-3,4-dihydro-2H,15′H-spiro[naphthalene-1,22′-[20]oxa[13]thia[1,14]diazatetracyclo [14.7.2.0~3,6~.0~19,24~]pentacosa[8,16,18,24]tetraen]-15′-one 13′,13′-dioxide], the IC50 in test [1] (setting [3]) came to 302 nM; in test [2] (setting [4]), 0.279 nM. Taken in the same sequence, the figures for `C[C@@H]1[C@@H](C)CCC[C@@](O)(Cc2nccn2C)[C@@H]2CC[C@H]2CN2C[C@@]3(CCCc4cc(Cl)ccc43)COc3ccc(cc32)C(=O)NS1(=O)=O` [Example 100162, (1S,3′R,6′R,7′R,11′S,12′R)-6-chloro-7′-hydroxy-11′,12′-dimethyl-7′-((1-methyl-1H-imidazol-2-yl)methyl)-3,4-dihydro-2H,15′H-spiro[naphthalene-1,22′-[20]oxa[13]thia[1,14]diazatetracyclo [14.7.2.0~3,6~.0~19,24~]pentacosa[16,18,24]trien]-15′-one 13′,13′-dioxide] were 2870 nM and 3.47 nM. For `CO[C@@]1(CN2CCN3CCN(C(C)C)C[C@@H]3C2)/C=C/C[C@H](C)[C@@H](C)S(=O)(=O)NC(=O)c2ccc3c(c2)N(C[C@@H]2CC[C@H]21)C[C@@]1(CCCc2cc(Cl)ccc21)CO3` (single isomer, unassigned) [Example 240], the IC50 in test [1] (read-out: OPM-2 10% FBS IC50 IP, OPM-2 cells, 10% FBS, 16 h incubation) was determined as 141 nM; in test [2] (setting [6]), 0.128 nM.

As to `CO[C@H](C)[C@]1(OC)/C=C/C[C@H](C)[C@@H](C)S(=O)(=O)NC(=O)c2ccc3c(c2)N(C[C@@H]2CC[C@H]21)C[C@@]1(CCCc2cc(Cl)ccc21)CO3` [Example 100473, (1S,3′R,6′R,7′S,8′E,11′S,12′R)-6-chloro-7′-methoxy-7′-((1R)-1-methoxyethyl)-11′,12′-dimethyl-3,4-dihydro-2H,15′H-spiro[naphthalene-1,22′-[20]oxa[13]thia[1,14]diazatetracyclo [14.7.2.0~3,6~.0~19,24~]pentacosa[8,16,18,24]tetraen]-15′-one 13′,13′-dioxide], the values for the IC50 in test [1] (setting [3]) and in test [2] (setting [4]) were 178 nM and 0.974 nM, respectively.

Consider `C[C@@H]1[C@@H](C)C/C=C/[C@](O)(c2cnccn2)[C@@H]2CC[C@H]2CN2C[C@@]3(CCCc4cc(Cl)ccc43)COc3ccc(cc32)C(=O)NS1(=O)=O` [Example 100383, (1S,3′R,6′R,7′R,8′E,11′S,12′R)-6-chloro-7′-hydroxy-11′,12′-dimethyl-7′-(2-pyrazinyl)-3,4-dihydro-2H,15′H-spiro[naphthalene-1,22′-[20]oxa[13]thia[1,14]diazatetracyclo [14.7.2.0~3,6~.0~19,24~]pentacosa[8,16,18,24]tetraen]-15′-one 13′,13′-dioxide], for which the IC50 in test [1] (setting [7]) amounted to 3430 nM; in test [2] (setting [4]), 0.264 nM.

Take `C[C@@H]1[C@@H](C)C/C=C/[C@](O)([C@H](O)C(=O)N(C)C)[C@@H]2CC[C@H]2CN2C[C@@]3(CCCc4cc(Cl)ccc43)COc3ccc(cc32)C(=O)NS1(=O)=O` [Example 100290, (2S)-2-((1S,3′R,6′R,7′R,8′E,11′S,12′R)-6-chloro-7′-hydroxy-11′,12′-dimethyl-13′,13′-dioxido-15′-oxo-3,4-dihydro-2H-spiro[naphthalene-1,22′-[20]oxa[13]thia[1,14]diazatetracyclo [14.7.2.0~3,6~.0~19,24~]pentacosa[8,16,18,24]tetraen]-7′-yl)-2-hydroxy-N,N-dimethylethanamide]: the IC50 in test [1] (setting [7]) stood at 259 nM; in test [2] (setting [4]), 0.116 nM. Turning to `C[C@@H]1[C@@H](C)CCC[C@@](C=O)(CN2CCOCC2)[C@@H]2CC[C@H]2CN2C[C@@]3(CCCc4cc(Cl)ccc43)COc3ccc(cc32)C(=O)NS1(=O)=O` [Example 100336, (1S,3′R,6′R,7′S,11′S,12′R)-6-chloro-11′,12′-dimethyl-7′-(4-morpholinylmethyl)-15′-oxo-3,4-dihydro-2H-spiro[naphthalene-1,22′-[20]oxa[13]thia[1,14]diazatetracyclo [14.7.2.0~3,6~.0~19,24~]pentacosa[16,18,24]triene]-7′-carbaldehyde 13′,13′-dioxide], the IC50 was 1810 nM in test [1] (setting [7]) and 1.12 nM in test [2]. Take `C[C@@H]1[C@@H](C)C/C=C/[C@](CN2CCN3CCOC[C@@H]3C2)(OCC(F)(F)F)[C@@H]2CC[C@H]2CN2C[C@@]3(CCCc4cc(Cl)ccc43)COc3ccc(cc32)C(=O)NS1(=O)=O` [Example 49, (1S,3′R,6′R,7′S,8′E,11′S,12′R)-6-chloro-7′-((9aS)-hexahydropyrazino[2,1-c][1,4]oxazin-8(1H)-ylmethyl)-11′,12′-dimethyl-7′-(2,2,2-trifluoroethoxy)-3,4-dihydro-2H,15′H-spiro[naphthalene-1,22′-[20]oxa[13]thia[1,14]diazatetracyclo [14.7.2.0~3,6~.0~19,24~]pentacosa[8,16,18,24]tetraen]-15′-one 13′,13′-dioxide]: the IC50 was found to be 185 nM in test [1] (setting [5]) and 0.087 nM in test [2] (setting [6]). Take `CO[C@@]1([C@@H](C)O)CCC[C@H](C)[C@@H](C)S(=O)(=O)NC(=O)c2ccc3c(c2)N(C[C@@H]2CC[C@H]21)C[C@@]1(CCCc2cc(Cl)ccc21)CO3` [Example 100483, (1S,3′R,6′R,7′S,11′S,12′R)-6-chloro-7′-((1R)-1-hydroxyethyl)-7′-methoxy-11′,12′-dimethyl-3,4-dihydro-2H,15′H-spiro[naphthalene-1,22′-[20]oxa[13]thia[1,14]diazatetracyclo [14.7.2.0~3,6~.0~19,24~]pentacosa[16,18,24]trien]-15′-one 13′,13′-dioxide]: the IC50 amounted to 1690 nM in test [1] (setting [7]) and 1.66 nM in test [2] (setting [4]). For `CC[C@@H]1CCCC[C@](CO)(OC)[C@@H]2CC[C@H]2CN2C[C@@]3(CCCc4cc(Cl)ccc43)COc3ccc(cc32)C(=O)NS1(=O)=O` [Example 100041, (1S,3′R,6′R,7′S,12′R)-6-chloro-12′-ethyl-7′-(hydroxymethyl)-7′-methoxy-3,4-dihydro-2H,15′H-spiro[naphthalene-1,22′-[20]oxa[13]thia[1,14]diazatetracyclo [14.7.2.0~3,6~.0~19,24~]pentacosa[16,18,24]trien]-15′-one 13′,13′-dioxide], the IC50 in test [1] (setting [7]) turned out to be 4990 nM; in test [2] (setting [4]) it was 3.36 nM.

With `C=CCC[C@@]1(O)/C=C/C[C@H](C)[C@@H](C)S(=O)(=O)NC(=O)c2ccc3c(c2)N(C[C@@H]2CC[C@H]21)C[C@@]1(CCCc2cc(Cl)ccc21)CO3` [Example 100158, (1S,3′R,6′R,7′R,8′E,11′S,12′R)-7′-(3-buten-1-yl)-6-chloro-7′-hydroxy-11′,12′-dimethyl-3,4-dihydro-2H,15′H-spiro[naphthalene-1,22′-[20]oxa[13]thia[1,14]diazatetracyclo [14.7.2.0~3,6~.0~19,24~]pentacosa[8,16,18,24]tetraen]-15′-one 13′,13′-dioxide], the IC50 in test [1] (setting [3]) amounted to 260 nM; in test [2] (setting [4]), 0.298 nM.

On to `CO[C@@]1(C[C@@H](O)C(C)C)/C=C/C[C@H](C)[C@@H](C)S(=O)(=O)NC(=O)c2ccc3c(c2)N(C[C@@H]2CC[C@H]21)C[C@@]1(CCCc2cc(Cl)ccc21)CO3` (single isomer, unassigned) [Example 100367], for which the results for the IC50 in test [1] (setting [3]) and in test [2] (setting [4]) were 604 nM and 0.371 nM, respectively.

As for `CO[C@@]1(CCN(C)C2CCCC2)/C=C/C[C@H](C)[C@@H](C)S(=O)(=O)NC(=O)c2ccc3c(c2)N(C[C@@H]2CC[C@H]21)C[C@@]1(CCCc2cc(Cl)ccc21)CO3` [Example 100418, (1S,3′R,6′R,7′S,8′E,11′S,12′R)-6-chloro-7′-(2-(cyclopentyl(methyl)amino)ethyl)-7′-methoxy-11′,12′-dimethyl-3,4-dihydro-2H,15′H-spiro[naphthalene-1,22′-[20]oxa[13]thia[1,14]diazatetracyclo [14.7.2.0~3,6~.0~19,24~]pentacosa[8,16,18,24]tetraen]-15′-one 13′,13′-dioxide], the IC50 in test [2] (setting [4]) was 0.098 nM.

The record behind these values is patent publication US10821115B2, “Compounds that inhibit Mcl-1 protein” (priority 2017, dated 2020).
